Here are results for eight compounds from patent publication US20070142449A1, “Angiogenesis inhibitors” (priority 2002, published 2007).

Assay [1] has as its system HUVECs. The experiment in a line: HUVEC growth inhibition assay (crystal violet). The format is cell-based. The note with it: Homo sapiens; for activity at 30 µM: 72 hours; for inhibition at 30 µM: read-out: Inhibition of HUVECs growth compared with the control. On the procedure: These compounds were tested in a growth inhibition assay using HUVECs as follows. 5×10^3 Human umbilical vein endothelial cells (HUVECs) were seeded in two 96-well plates (Clonetic # CC3162). Each well contains 100 μl of endothelial cell basal medium-2. After 24 hr, 100 μl endothelial cell growth medium-2 containing a test compound was added to each well of the two plates. The cells in the first plate were immediately stained with 0.5% crystal violet in 20% methanol for 10 minutes, rinsed with water, and air-dried. The cells in the second plate were incubated for 72 hours at 37° C. and then stained in the same manner. Each well in the first and second plates was eluted with 1:1 ethanol and 0.1 M sodium citrate, and absorbance of the resulting solution was measured at 540 nm with an ELISA reader.
Basal and control experiments were also conducted according to the above procedure, except that 100 μl endothelial basal medium-2 and 100 μl endothelial growth medium-2 were added to the second plates, respectively, instead of endothelial cell growth medium-2 containing a test compound.
HUVECs growth in each well was compared with that of the basal experiment according to the following equation: % basal=(Asecond plate−Afirst plate)/(Asecond plate of basal−Afirst plate of basal)×100%
where Asecond plate is the absorbance of the solution in the second plate; Afirst plate is the absorbance of the solution in the first plate; Asecond plate of basal is the absorbance of the solution in the second plate of the basal; and Afirst plate of basal is the absorbance of the solution in the first plate of the basal.

Assay [2] concerns bFGF-induced cell proliferation of HUVECs. The experiment in a line: Inhibition of bFGF-induced DNA synthesis ([3H]thymidine incorporation) in HUVECs. The format is cell-based. The conditions noted are these: Homo sapiens, HUVEC. On the procedure:
(§1) Human umbilical vein endothelial cells (HUVECs) were incubated in the absence of Compound 1 (basal and control) or presence of Compound 1 (with a concentration of […], 0.03 TM, 0.1 TM, 0.3 TM, or 1 TM). Vascular endothelial growth factor (VEGF) or basic fibroblast growth factor (bFGF) was added (except for basal) to induce DNA synthesis, which was detected based on [^3H]thymidine incorporation.
(In general: Incorporation of labelled thymidine or its analogues reports DNA synthesis.)

For assay [3], the system named is VEGF-induced cell proliferation of HUVECs. The experiment in a line: Inhibition of VEGF-induced DNA synthesis ([3H]thymidine incorporation) in HUVECs. The format is cell-based. The conditions noted are these: Homo sapiens, HUVEC. On the procedure:
as §1

The test system of assay [4] is VEGF-induced angiogenic effect. The experiment in a line: Matrigel plug angiogenesis in nude mice, VEGF. The format is in vivo. On the procedure:
(§2) Nude mice were subcutaneously injected with a Matrigel plug containing 150 ng/mL VEGF or bFGF. Vehicle or Compound 1 was administrated to the mice orally (1 mg/kg/day, 3 mg/kg/day, 10 mg/kg/day, 30 mg/kg/day, or 100 mg/kg/day) for seven days. The angiogenic response was monitored visually through the transparent skin. […] The plugs were removed, fixed in 4% formaldehyde, embedded in paraffin, sectioned at 5-Tm thick for histological analysis, and blood vessel growth quantified by hematoxylin-eosin staining. All photos were taken at 40× magnification.
(§3) In a quantitative analysis of angiogenic effect, nude mice were treated as described above, and the plugs were removed and dissolved. Hemoglobin concentrations were measured using a hemoglobin detection kit (Sigma Chem. Co.) as indices of angiogenesis. Means±S.E. (n=3) were presented (see FIG. 1). Symbol “***” represents P<0.001 that are compared with the control.

In assay [5] the test system is A549 lung tumor cells. The experiment in a line: Anti-tumor activity, survival of nude mice with A549 lung tumor cells in the pleural space. The format is in vivo. The conditions noted are these: oral 10 mg/kg/day, 10^6 A549 cells in pleural space, FIG. 2. On the procedure:
10^6 A549 lung tumor cells were introduced into the pleural space of nude mice. Compound 1 was administrated to the mice orally (10 mg/kg/day). The survival rates of Compound 1-treated mice and control mice were compared (FIG. 2). The life span (i.e., the medium survival time) of Compound 1-treated mice was about 1.8 times that of control mice, as analyzed by a % T/C value [(median survival time of treatment/median survival time of control)×100].

In assay [6] the test system is bFGF-induced angiogenic effect. The experiment in a line: Matrigel plug angiogenesis in nude mice, bFGF. The format is in vivo. On the procedure:
as §2, §3

Assay [7] relates to VEGF-induced tube formation of HUVECs. Briefly: Inhibition of VEGF-induced tube formation of HUVECs on Matrigel. The conditions noted are these: 10 TM compound, VEGF 10 ng/mL, Matrigel 10 mg/mL. The format is cell-based, Human. On the procedure: (§4) HUVECs were cultured onto a chamber slide, which was pre-coated with Matrigel (10 mg/mL). Cells were treated without Compound 1 (control) or with Compound 1 (10 TM). VEGF (10 ng/mL) or bFGF (10 ng/mL) was added to induce tube formation. All photos were taken at 100× magnification.

The test system of assay [8] is bFGF-induced tube formation of HUVECs. The experiment in a line: Inhibition of bFGF-induced tube formation of HUVECs on Matrigel. The format is cell-based, Human. The note with it: 10 TM compound, bFGF 10 ng/mL, Matrigel 10 mg/mL. On the procedure:
as §4

The mark [9] stands for this setting: read-out: HUVEC growth, % of Basal.
[10] abbreviates: read-out: HUVEC growth, % of Control.

Where two headings read alike, the source gives them in different places.

Broadly, the inhibition is the percentage by which the read-out fell short of the control. For orientation: IC50 means the point on the concentration scale where inhibition reaches its midpoint. Low values mean greater potency, high ones weaker potency.

With `O=C(O)c1cccc(-c2nn(Cc3ccccc3)c3ccccc23)c1` [Compound 9], the figures for the activity at 30 µM in assay [1] (setting [9]) and in assay [1] (setting [10]) were 172 ± 14.4% and 75.8 ± 6.3%, respectively. Further, in assay [1], the inhibition at 30 µM lay within 22 to 40%.
In the same order, the values of `COC(=O)c1ccc(-c2n[nH]c3ccccc23)o1` [Compound 2] are 193 ± 11.1%, 85 ± 4.9% and 15%.
For `Cc1ccc2c(-c3ccc(CO)o3)nn(Cc3ccccc3)c2c1` [Compound 7] the same measures were 53.9 ± 7.5%, 23.7 ± 3.3% and 60 to 76%.
For `OCc1ccc(-c2nn(Cc3ccccc3)c3cc(F)ccc23)o1` [Compound 6], the activity at 30 µM in assay [1] (setting [9]) stood at 83.9 ± 4%; in assay [1] (setting [10]), 37 ± 1.8%. For the same compound, the inhibition at 30 µM in assay [1] was in the range of 60 to 76%.
On to `COC(=O)c1ccc(-c2nn(Cc3ccccc3)c3cc(F)ccc23)o1` [Compound 4], for which the activity at 30 µM in assay [1] (setting [9]) is 195 ± 6.5%; in assay [1] (setting [10]) it was 85.9 ± 2.8%. For the same compound, the inhibition at 30 µM in assay [1] turned out to be 15%.
On to `OCc1ccc(-c2nn(Cc3ccccc3)c3ccccc23)o1` [Compound 1, 1-benzyl-3-(5′-hydroxymethyl-2′-furyl)indazole], for which the values for the IC50 in assay [2] and in assay [3] were 140 nM and 90 nM, respectively. Further, the activity at 30 µM was 92.2 ± 1.8% in assay [1] (setting [9]) and 40.6 ± 0.8% in assay [1] (setting [10]). In assay [1], the inhibition at 30 µM is 60 to 76%. Further, the “VEGF-induced angiogenic effect, blood vessel growth in Matrigel plug (histology)” value in assay [4] (oral 1-100 mg/kg/day for seven days, plug with 150 ng/mL VEGF) is reported as “effectively inhibited”. Besides, the “VEGF-induced angiogenic effect, hemoglobin concentration of plug” value in assay [4] (oral, seven days, n=3, FIG. 1) is listed as “effectively inhibited”. Further, the “Life span (medium survival time) relative to control mice” value in assay [5] is “about 1.8 times that of control mice”. Also, the “bFGF-induced angiogenic effect, blood vessel growth in Matrigel plug (histology)” value in assay [6] (oral 1-100 mg/kg/day for seven days, plug with 150 ng/mL bFGF) is on record as “effectively inhibited”. Moreover, the “bFGF-induced angiogenic effect, hemoglobin concentration of plug” value in assay [6] (oral, seven days, n=3, FIG. 1) is on record as “effectively inhibited”. Also, the “Inhibition of VEGF-induced formation of networks of elongated endothelial cells” value in assay [7] is “inhibited”. Also, the “Inhibition of bFGF-induced formation of networks of elongated endothelial cells” value in assay [8] was “inhibited”.
For `Cc1ccc2c(-c3ccc(C(=O)O)o3)nn(Cc3ccccc3)c2c1` [Compound 8], the activity at 30 µM in assay [1] (setting [9]) turned out to be 163 ± 22.1%; in assay [1] (setting [10]), 71.4 ± 9.7%. Also, the inhibition at 30 µM in assay [1] was 22 to 40%.
In the same order, the values of `OCc1ccc(-c2n[nH]c3ccccc23)o1` [Compound 3] are 178 ± 14.7%, 78.4 ± 6.5% and 22 to 40%.
